Test results taken from ChEMBL document CHEMBL1909046, “DrugMatrix in vitro pharmacology data”.
Where a SMILES comes first, the peptide text is derived from it. Bridges are numbered along the chain shown (N, C = ends). [ ]: non-standard residue; d: D form. The star is where a group is joined. Ileψ(thiazoline)Cys = CC[C@H](C)[C@H](N)C1=N[C@H](C(=O)*)CS1; dOrn = NCCC[C@@H](N)C(=O)O

Tests used:
[1] = DRUGMATRIX: Phosphodiesterase PDE4 enzyme inhibition (substrate: [3H]cAMP + cAMP); details: u-937; Not Active = under 50% inhibition at 10 µM
[2] = biological target: 5-hydroxytryptamine receptor 2B (Homo sapiens, UniProt P41595); type: cell membranes, CHO-K1, Membrane; also: in other assays of this panel Not Active means under 50% inhibition at 10 µM
[3] = biological target: 5-hydroxytryptamine receptor 6 (Homo sapiens, UniProt P50406); type: cell membranes, HeLa, Membrane; also: in other assays of this panel Not Active means under 50% inhibition at 10 µM
Endothelin-1 receptor = biological target: T1, Endothelin-1 receptor (Homo sapiens, UniProt P25101); type: cell membranes, Membrane; details: cho-k1; also: in other assays of this panel Not Active means under 50% inhibition at 10 µM
T1 sequence (P25101 whole entry): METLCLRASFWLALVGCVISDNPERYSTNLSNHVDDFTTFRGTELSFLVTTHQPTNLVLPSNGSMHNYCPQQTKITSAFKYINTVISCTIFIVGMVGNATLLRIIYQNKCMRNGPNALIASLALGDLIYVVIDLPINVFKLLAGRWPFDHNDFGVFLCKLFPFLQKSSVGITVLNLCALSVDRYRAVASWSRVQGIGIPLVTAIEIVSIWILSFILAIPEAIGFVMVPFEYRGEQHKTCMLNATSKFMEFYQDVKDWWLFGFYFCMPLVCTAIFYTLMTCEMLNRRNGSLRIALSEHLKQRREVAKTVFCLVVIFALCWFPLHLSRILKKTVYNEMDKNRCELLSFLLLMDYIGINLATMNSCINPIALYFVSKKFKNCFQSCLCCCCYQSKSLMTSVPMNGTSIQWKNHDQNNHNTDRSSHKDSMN

[4] = DRUGMATRIX: Sodium/nucleoside co-transporter radioligand binding (ligand: nitrobenzylthioinosine); type: cell membranes, Cavia porcellus, Dunkin-Hartley, Cerebral cortex, Membrane; details: Not Active = under 50% inhibition at 10 µM
[5] = biological target: T2, Muscarinic acetylcholine receptor M4 (Homo sapiens, UniProt P08173); type: cell membranes, CHO-K1, Membrane; also: in other assays of this panel Not Active means under 50% inhibition at 10 µM
T2 sequence (P08173 whole entry): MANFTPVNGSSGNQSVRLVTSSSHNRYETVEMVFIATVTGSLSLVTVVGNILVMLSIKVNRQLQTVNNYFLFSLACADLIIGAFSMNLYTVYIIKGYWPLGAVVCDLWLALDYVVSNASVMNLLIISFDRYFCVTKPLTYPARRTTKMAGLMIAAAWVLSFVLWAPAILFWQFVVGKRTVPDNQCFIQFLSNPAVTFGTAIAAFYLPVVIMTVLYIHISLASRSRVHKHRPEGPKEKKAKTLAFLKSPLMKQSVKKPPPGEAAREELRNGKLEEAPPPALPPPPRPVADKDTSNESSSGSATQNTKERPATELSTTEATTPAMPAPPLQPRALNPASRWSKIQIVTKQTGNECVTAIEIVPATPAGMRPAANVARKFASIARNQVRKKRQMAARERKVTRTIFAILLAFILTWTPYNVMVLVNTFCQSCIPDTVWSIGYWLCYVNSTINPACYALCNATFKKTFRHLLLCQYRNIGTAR

[6] = DRUGMATRIX: Purinergic P2X radioligand binding (ligand: [3H] alpha, beta-Methylene-ATP); type: cell membranes, Oryctolagus cuniculus, New Zealand albino, Urinary bladder, Membrane; details: Not Active = under 50% inhibition at 10 µM
[7] = DRUGMATRIX: Serotonin (5-Hydroxytryptamine) 5-HT3 radioligand binding (ligand: [3H] GR-65630); type: cell membranes, Membrane; details: hek293; Not Active = under 50% inhibition at 10 µM
[8] = DRUGMATRIX: Glutamate, AMPA radioligand binding (ligand: [3H] AMPA); type: cell membranes, Rattus norvegicus, Wistar, Cerebral cortex, Membrane; details: Not Active = under 50% inhibition at 10 µM
[9] = biological target: Tyrosine-protein kinase Fyn (Homo sapiens, UniProt P06241); test: biochemical; type: cell-based, Insect cells
Nitric oxide synthase 1 = Nitric oxide synthase 1 (Rattus norvegicus, UniProt P29476); type: tissue-based, Cerebellum; also: in other assays of this panel Not Active means under 50% inhibition at 10 µM
[10] = biological target: T3, Polyunsaturated fatty acid lipoxygenase ALOX15 (Oryctolagus cuniculus, UniProt P12530); test: biochemical; type: tissue-based, Reticulocytes; details: reticulocytes
T3 sequence (P12530 whole entry): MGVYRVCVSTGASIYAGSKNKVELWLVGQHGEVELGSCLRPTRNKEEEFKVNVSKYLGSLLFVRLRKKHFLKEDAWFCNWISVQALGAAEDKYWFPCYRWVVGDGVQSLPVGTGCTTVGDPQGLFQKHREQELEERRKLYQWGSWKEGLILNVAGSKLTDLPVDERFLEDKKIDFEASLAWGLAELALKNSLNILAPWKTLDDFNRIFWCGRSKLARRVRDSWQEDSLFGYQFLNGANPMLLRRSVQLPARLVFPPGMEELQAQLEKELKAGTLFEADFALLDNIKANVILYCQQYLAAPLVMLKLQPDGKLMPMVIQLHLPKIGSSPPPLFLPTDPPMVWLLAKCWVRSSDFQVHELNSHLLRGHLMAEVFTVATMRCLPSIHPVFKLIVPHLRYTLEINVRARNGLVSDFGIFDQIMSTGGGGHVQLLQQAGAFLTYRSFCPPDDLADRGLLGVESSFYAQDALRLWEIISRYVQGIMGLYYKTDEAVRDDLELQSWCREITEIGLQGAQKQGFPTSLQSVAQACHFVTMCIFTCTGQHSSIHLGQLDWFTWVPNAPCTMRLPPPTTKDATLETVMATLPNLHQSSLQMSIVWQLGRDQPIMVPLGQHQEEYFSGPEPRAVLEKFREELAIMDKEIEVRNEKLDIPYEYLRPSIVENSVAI

[11] = biological target: Mitogen-activated protein kinase 14 (Homo sapiens, UniProt Q16539); parameters: species or system Escherichia coli
Cytochrome P450 2A6 = biological target: T4, Cytochrome P450 2A6 (Homo sapiens, UniProt P11509); details: bti-tn-5b1-4; also: in other assays of this panel Not Active means under 50% inhibition at 10 µM
T4 sequence (P11509 whole entry): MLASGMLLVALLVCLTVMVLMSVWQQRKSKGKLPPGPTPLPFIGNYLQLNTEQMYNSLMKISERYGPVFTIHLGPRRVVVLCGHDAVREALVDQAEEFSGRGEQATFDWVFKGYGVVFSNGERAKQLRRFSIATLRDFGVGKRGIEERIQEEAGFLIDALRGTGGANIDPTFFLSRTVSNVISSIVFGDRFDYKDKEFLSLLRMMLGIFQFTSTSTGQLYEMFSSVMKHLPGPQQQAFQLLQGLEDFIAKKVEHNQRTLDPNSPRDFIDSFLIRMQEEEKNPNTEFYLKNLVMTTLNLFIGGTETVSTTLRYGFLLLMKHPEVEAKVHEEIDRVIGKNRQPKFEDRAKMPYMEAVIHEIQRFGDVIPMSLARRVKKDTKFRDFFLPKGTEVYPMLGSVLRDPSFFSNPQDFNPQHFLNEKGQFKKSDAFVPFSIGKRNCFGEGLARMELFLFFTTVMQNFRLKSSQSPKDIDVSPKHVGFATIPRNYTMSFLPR

Mitogen-activated protein kinase 14, sequence (Q16539 whole entry): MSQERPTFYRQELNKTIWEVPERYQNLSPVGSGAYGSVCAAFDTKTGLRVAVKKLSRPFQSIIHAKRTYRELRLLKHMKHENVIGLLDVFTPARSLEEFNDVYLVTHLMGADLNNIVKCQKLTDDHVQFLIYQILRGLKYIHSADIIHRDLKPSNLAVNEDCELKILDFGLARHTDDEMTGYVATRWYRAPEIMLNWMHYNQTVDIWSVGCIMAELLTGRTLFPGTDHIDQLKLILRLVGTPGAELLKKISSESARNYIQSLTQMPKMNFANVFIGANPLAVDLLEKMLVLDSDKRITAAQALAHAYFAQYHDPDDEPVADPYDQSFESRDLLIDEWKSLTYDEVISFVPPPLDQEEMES
5-hydroxytryptamine receptor 2B, sequence (P41595 whole entry): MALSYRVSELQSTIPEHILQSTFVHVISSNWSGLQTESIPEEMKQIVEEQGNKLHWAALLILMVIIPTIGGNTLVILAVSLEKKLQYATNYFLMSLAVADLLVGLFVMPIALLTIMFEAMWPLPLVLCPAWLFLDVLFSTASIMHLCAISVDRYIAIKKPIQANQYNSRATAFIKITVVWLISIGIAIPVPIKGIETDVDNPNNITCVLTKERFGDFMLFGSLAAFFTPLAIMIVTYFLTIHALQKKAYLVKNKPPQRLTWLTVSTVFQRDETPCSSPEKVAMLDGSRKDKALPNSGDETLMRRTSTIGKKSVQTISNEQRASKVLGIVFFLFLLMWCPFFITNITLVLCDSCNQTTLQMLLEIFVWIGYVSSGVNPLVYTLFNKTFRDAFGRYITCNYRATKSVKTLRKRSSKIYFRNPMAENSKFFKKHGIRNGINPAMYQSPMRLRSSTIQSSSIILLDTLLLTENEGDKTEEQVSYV
5-hydroxytryptamine receptor 6, sequence (P50406 whole entry): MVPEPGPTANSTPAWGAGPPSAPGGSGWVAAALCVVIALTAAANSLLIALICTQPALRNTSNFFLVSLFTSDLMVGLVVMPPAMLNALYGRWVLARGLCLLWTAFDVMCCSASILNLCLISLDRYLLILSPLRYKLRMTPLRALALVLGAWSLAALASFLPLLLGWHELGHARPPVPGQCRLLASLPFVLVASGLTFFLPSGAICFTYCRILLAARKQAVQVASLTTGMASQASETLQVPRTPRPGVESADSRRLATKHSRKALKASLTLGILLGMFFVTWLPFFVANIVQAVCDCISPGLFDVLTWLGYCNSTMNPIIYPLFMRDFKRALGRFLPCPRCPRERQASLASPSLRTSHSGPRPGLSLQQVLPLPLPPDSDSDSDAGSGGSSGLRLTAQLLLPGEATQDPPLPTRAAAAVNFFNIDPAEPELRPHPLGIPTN
Nitric oxide synthase 1, sequence (P29476 whole entry): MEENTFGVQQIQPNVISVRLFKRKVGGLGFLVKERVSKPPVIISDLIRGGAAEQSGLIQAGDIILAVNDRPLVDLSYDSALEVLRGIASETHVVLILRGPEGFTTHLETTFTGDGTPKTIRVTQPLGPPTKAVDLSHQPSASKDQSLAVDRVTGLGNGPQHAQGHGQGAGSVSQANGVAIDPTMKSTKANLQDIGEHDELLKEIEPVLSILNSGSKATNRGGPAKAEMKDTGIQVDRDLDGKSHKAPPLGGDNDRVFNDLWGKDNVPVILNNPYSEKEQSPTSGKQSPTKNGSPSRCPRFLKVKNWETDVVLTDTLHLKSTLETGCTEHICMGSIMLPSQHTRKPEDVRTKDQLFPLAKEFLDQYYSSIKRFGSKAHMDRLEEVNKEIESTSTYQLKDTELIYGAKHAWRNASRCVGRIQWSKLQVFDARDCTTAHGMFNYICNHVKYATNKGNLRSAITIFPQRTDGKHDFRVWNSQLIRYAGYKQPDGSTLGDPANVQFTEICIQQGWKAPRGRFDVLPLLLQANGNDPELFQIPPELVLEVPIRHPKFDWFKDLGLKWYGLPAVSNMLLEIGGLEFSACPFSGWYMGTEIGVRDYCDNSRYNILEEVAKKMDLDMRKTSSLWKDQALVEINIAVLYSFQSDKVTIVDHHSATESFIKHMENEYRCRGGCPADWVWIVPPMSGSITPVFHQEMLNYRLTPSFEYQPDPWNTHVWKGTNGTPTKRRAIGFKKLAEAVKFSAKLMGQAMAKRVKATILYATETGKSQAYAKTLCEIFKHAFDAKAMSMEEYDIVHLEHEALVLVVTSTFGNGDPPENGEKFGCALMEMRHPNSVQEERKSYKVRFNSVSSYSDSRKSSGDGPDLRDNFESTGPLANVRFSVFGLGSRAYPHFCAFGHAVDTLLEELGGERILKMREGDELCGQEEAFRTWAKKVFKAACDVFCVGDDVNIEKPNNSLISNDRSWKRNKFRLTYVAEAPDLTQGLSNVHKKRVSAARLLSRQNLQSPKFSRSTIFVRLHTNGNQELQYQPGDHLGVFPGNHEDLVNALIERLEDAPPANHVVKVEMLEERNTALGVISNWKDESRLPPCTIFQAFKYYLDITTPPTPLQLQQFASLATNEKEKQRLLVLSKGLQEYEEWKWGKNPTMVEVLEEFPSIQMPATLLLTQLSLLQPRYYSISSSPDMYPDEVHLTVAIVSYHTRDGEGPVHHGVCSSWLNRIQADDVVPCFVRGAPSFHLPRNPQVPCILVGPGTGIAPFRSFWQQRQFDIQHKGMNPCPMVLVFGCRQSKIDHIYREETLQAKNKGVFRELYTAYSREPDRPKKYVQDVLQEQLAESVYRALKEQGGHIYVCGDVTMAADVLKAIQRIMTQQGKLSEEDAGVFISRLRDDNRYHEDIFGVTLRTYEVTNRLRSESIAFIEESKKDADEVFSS
Tyrosine-protein kinase Fyn, sequence (P06241 whole entry): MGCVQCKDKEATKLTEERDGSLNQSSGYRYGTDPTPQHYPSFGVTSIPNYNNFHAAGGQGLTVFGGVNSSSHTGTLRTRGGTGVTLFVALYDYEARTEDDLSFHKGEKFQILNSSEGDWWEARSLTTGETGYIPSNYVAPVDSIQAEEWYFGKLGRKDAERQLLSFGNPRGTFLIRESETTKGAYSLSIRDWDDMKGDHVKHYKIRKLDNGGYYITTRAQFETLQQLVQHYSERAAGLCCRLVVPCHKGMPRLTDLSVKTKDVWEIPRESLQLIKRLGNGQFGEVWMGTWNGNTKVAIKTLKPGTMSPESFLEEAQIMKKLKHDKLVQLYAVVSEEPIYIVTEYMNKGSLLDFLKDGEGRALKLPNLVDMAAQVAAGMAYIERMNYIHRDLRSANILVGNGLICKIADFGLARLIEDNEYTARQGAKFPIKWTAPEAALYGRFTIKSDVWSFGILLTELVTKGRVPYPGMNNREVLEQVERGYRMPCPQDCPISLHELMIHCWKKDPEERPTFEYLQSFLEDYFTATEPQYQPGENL

| Molecule | IC50 [1] | Ki [1] | IC50 ([2]; cho-k1) | IC50 ([3]; hela) | IC50 (Endothelin-1 receptor) | IC50 [4] | Ki [4] | IC50 ([5]; cho-k1) | IC50 [6] | Ki [6] | IC50 [7] | Ki [7] | IC50 [8] | Ki [8] | IC50 ([9]; insect cells) | IC50 (Nitric oxide synthase 1) | IC50 [10] | IC50 [11] | IC50 (Cytochrome P450 2A6) | Ki (Cytochrome P450 2A6) | also measured |
| --- | --- | --- | --- | --- | --- | --- | --- | --- | --- | --- | --- | --- | --- | --- | --- | --- | --- | --- | --- | --- | --- |
| CC[C@H](C)[C@H](N)C1=N[C@H](C(=O)N[C@@H](CC(C)C)C(=O)N[C@H](CCC(=O)O)C(=O)N[C@H](C(=O)N[C@H]2CCCCNC(=O)[C@H](CC(N)=O)NC(=O)[C@@H](CC(=O)O)NC(=O)[C@H](Cc3cnc[nH]3)NC(=O)[C@@H](Cc3ccccc3)NC(=O)[C@H]([C@@H](C)CC)NC(=O)[C@@H](CCCN)NC2=O)[C@@H](C)CC)CS1 [BACITRACIN] ({Ileψ(thiazoline)Cys}-L[dE]IK[dOrn]I[dF]H[dD]N; lactam 4-C) | Not Active | Not Active | Not Active | Not Active | Not Active | Not Active | Not Active | Not Active | Not Active | Not Active | Not Active | Not Active | Not Active | Not Active | Not Active | Not Active | Not Active | Not Active | Not Active | Not Active | – |
| Fc1ccc([C@@H]2CCNC[C@H]2COc2ccc3c(c2)OCO3)cc1 [PAROXETINE] | Not Active | Not Active | Not Active | Not Active | Not Active | Not Active | Not Active | – | Not Active | Not Active | Not Active | Not Active | Not Active | Not Active | Not Active | Not Active | Not Active | Not Active | Not Active | Not Active | IC50 ([5]; read-out: IC50): 244 nM; Ki ([5]; read-out: Ki): 34 nM |
| GOLD SODIUM THIOMALATE | Not Active | Not Active | Not Active | Not Active | Not Active | Not Active | Not Active | Not Active | Not Active | Not Active | Not Active | Not Active | Not Active | Not Active | – | Not Active | Not Active | Not Active | Not Active | Not Active | Ki ([2]; cho-k1): Not Active; Ki ([3]; hela): Not Active; Ki (Endothelin-1 receptor): Not Active; Ki ([5]; cho-k1): Not Active; IC50 ([9]; insect cells, read-out: IC50): 0.811 µM; Ki (Nitric oxide synthase 1): Not Active; Ki [10]: Not Active; Ki [11]: Not Active |
| CISPLATIN | Not Active | Not Active | Not Active | Not Active | Not Active | Not Active | Not Active | Not Active | Not Active | Not Active | Not Active | Not Active | Not Active | Not Active | – | Not Active | Not Active | Not Active | Not Active | Not Active | Ki ([2]; cho-k1): Not Active; Ki ([3]; hela): Not Active; Ki (Endothelin-1 receptor): Not Active; Ki ([5]; cho-k1): Not Active; IC50 ([9]; insect cells, read-out: IC50): 4.77 µM; Ki (Nitric oxide synthase 1): Not Active; Ki [10]: Not Active; Ki [11]: Not Active |
| COC(=O)[C@H](c1ccccc1Cl)N1CCc2sccc2C1 [CLOPIDOGREL] | Not Active | Not Active | Not Active | Not Active | Not Active | Not Active | Not Active | Not Active | Not Active | Not Active | Not Active | Not Active | Not Active | Not Active | Not Active | Not Active | Not Active | Not Active | Not Active | Not Active | – |
| CN1C[C@H](C(=O)N[C@]2(C)O[C@@]3(O)[C@@H]4CCCN4C(=O)[C@H](Cc4ccccc4)N3C2=O)C=C2c3cccc4[nH]cc(c34)C[C@H]21 [ERGOTAMINE] | Not Active | Not Active | – | – | Not Active | Not Active | Not Active | Not Active | Not Active | Not Active | Not Active | Not Active | Not Active | Not Active | – | Not Active | Not Active | Not Active | Not Active | Not Active | IC50 ([2]; read-out: IC50): 3.46 nM; Ki ([2]; read-out: Ki): 2.2 nM; IC50 ([3]; read-out: IC50): 2.04 nM; Ki ([3]; read-out: Ki): 0.948 nM; IC50 ([9]; read-out: IC50): 3.16 µM |
